The values below are quoted from earlier work in patent US7491730B2, “Compositions useful as inhibitors of GSK-3” (Vertex Pharmaceuticals Incorporated, priority 2002, dated 2009).

One may read the IC50 as the concentration that inhibits the measured activity by half.

In the data set the target is gamma secretase. The note with it: vendor value, Calbiochem catalog #565771; read-out: reported IC50.

SMILES strings stand for the structures.

Take `CC(C)C[C@H](NC(=O)[C@H](Cc1ccccc1)C[C@@H](O)[C@H](Cc1ccccc1)NC(=O)OC(C)(C)C)C(=O)N[C@@H](Cc1ccccc1)C(N)=O` [Inhibitor X]: the 50% inhibitory concentration (IC50) was 50 nM.
